Values of other authors as cited in patent US20210113548A1, “METHODS FOR DETERMINING A DRUG DOSING REGIMEN” (Clear Creek Bio, Inc., priority 2019, published 2021).

Tests used:
[1] = system: mouse model of AML
[2] = system: solid tumor malignancies; conditions: administered over a 5-day period followed by a 3-week gap or once per week for three weeks followed by a 1-week gap

Question: Which results are given for Cc1c(-c2ccc(-c3ccccc3F)cc2)nc2ccc(F)cc2c1C(=O)O [brequinar, 6-fluoro-2-(2′-fluoro-1,1′ biphenyl-4-yl)-3-methyl-4-quinoline carboxylic acid]?
Answer: adverse effects of daily administration of high doses [1]: weight loss, anemia, and thrombocytopenia; efficacy in treatment of solid tumor malignancies [2]: ineffective
